Data set [1] concerns ZIKV PRVABC-59. Description: CPE reduction assay, ZIKV Puerto Rican PRVABC-59. The data set is classed as cell-based. To be noted: Zika virus.
The test system of data set [2] is ZIKV P 6-740. The data set is described as follows: CPE reduction assay, ZIKV Malaysian P 6-740. The data set is classed as cell-based. To be noted: Zika virus.
Data set [3] concerns ZIKV MR-766. Description: CPE reduction assay, ZIKV Ugandan MR-766. The data set is classed as cell-based. To be noted: Zika virus.
The test system of data set [4] is ZIKV (P 6-740). The data set is classed as in vivo, AG129 mice. To be noted: for Mean weight change from days 7 to 13: vehicle −3.1 ± 2.4 g, p<0.001.
For data set [5], the system named is ZIKV (P 6-740). The data set is described as follows: Re-challenge of surviving BCX4430-treated AG129 mice with ZIKV. The data set is classed as in vivo. To be noted: BCX4430-treated mice (300 mg/kg/d) that survived initial ZIKV challenge.
Data set [6] concerns ZIKV (P 6-740). The data set is classed as in vivo, AG129 mice.
Data set [7] relates to ZIKV MR-766. The data set is described as follows: Virus yield reduction. To be noted: Zika virus.
The test system of data set [8] is ZIKV Malaysian P 6-740. Description: Virus yield reduction.
In data set [9] the test system is ZIKV P 6-740. Description: Virus yield reduction. To be noted: Zika virus.
Data set [10] deals with ZIKV PRVABC-59. The data set is described as follows: Virus yield reduction. To be noted: Zika virus.
The subject of data set [11] is ZIKV. Description: Virus yield reduction concentration-response. The data set is classed as cell-based, Zika virus. To be noted: single test.
Setting [12] is: Huh-7, read-out: CPE red. assay EC50.
[13] abbreviates: RD, read-out: CPE red. assay EC50.
Where [14] appears, read: Vero 76, read-out: CPE red. assay EC50.
Where [15] appears, read: 300 mg/kg/d bid for 7 days beginning 3 dpi.
Where [16] appears, read: Huh-7, read-out: VYR assay EC90.
Setting [17] is: Vero 76, read-out: VYR assay EC90.

≈ marks a conversion by molar mass, not a printed value. Where two headings read alike, the source gives them in different places. Where only a bound is given, the exact number is not on record here.

A word on the EC50: it is the concentration giving half of the maximal effect. Usually EC90 stands for the concentration at which the effect reaches the 90% level. Take `Nc1ncnc2c([C@@H]3N[C@H](CO)[C@@H](O)[C@H]3O)c[nH]c12` [BCX4430]: the EC50 in data set [1] (setting [12]) turned out to be 4.7 ± 0.6 µg/mL (≈ 17.7 µM); in [1] (setting [13]) it was 4.7 ± 2.2 µg/mL (≈ 17.7 µM); in data set [1] (setting [14]), 3.8 ± 2.5 µg/mL (≈ 14.3 µM); in data set [2] (setting [12]), 5.5 ± 0.1 µg/mL (≈ 20.7 µM); in [2] (setting [14]), 11.5 ± 4.4 µg/mL (≈ 43.4 µM); in data set [3] (setting [12]), 5.7 ± 0.9 µg/mL (≈ 21.5 µM). For the same molecule, the EC50 was 4.4 ± 1.3 µg/mL (≈ 16.6 µM) in [3] (setting [13]) and 11.7 ± 4.7 µg/mL (≈ 44.1 µM) in [3] (setting [14]). Besides, the figures for the “Mean weight change from days 7 to 13” value in data set [4] (150 mg/kg/d) and in data set [4] (300 mg/kg/d) were -0.3 ± 0.8 g and “+0.2 ± 0.5 g”, respectively. Further, in data set [4] (300 mg/kg/d, similar to sham infected animals treated with the same dose), the “Weight between 0 and 19 dpi” value is “did not decline substantially”. Also, in data set [4] (either dose of BCX4430 (300 or 150 mg/kg/d)), the “Viral RNA level in pooled serum on day 5 (qRT-PCR)” value is on record as “significant reduction in viremia”. In addition, the “Neutralizing antibody titers in serum just prior to re-challenge” value in data set [5] is 4-5 log10 PRNT50. In data set [6] (300 mg/kg/d beginning 1, 3 or 5 dpi, vs vehicle p<0.001), the “Protection from weight loss between 7 and 13 dpi” value is on record as “Significant protection from weight loss”. The “Viral RNA levels in serum on 5 dpi” value in [6] (300 mg/kg/d beginning 1 or 3 dpi) is recorded as “not significantly decreased”. Besides, the Median survival in data set [6] (300 mg/kg/d bid for 7 days beginning 1 dpi) is greater than 28 days; in data set [6] (setting [15]) it was 19.5 days; in [6] (300 mg/kg/d bid for 7 days beginning 5 dpi), 18 days; in data set [6] (300 mg/kg/d bid for 7 days beginning 7 dpi) it was 17 days. In addition, the Survivors entry in data set [6] (setting [15]) is listed as “only a single mouse survived”. For the same molecule, the EC90 in [7] (setting [16]) is 6.4 µg/mL (≈ 24.1 µM); in data set [7] (RD, read-out: VYR assay EC90), 5.4 ± 1.1 µg/mL (≈ 20.4 µM); in [7] (setting [17]), 8.7 µg/mL (≈ 32.8 µM); in data set [9] (setting [16]), 4.9 ± 0.9 µg/mL (≈ 18.5 µM); in data set [9] (setting [17]), 13.8 ± 3.7 µg/mL (≈ 52 µM); in data set [10] (setting [16]), 6.7 ± 1.2 µg/mL (≈ 25.3 µM). In addition, the EC90 in data set [10] (RD, read-out: VYR assay EC90) was determined as 10 ± 2.2 µg/mL (≈ 37.7 µM); in [10] (setting [17]), 18.2 ± 2.7 µg/mL (≈ 68.6 µM). In addition, the selectivity ratio came out at 7.3 in [8] (African green monkey) and 20.5 in [8] (human).

With `NC(=O)c1ncn([C@@H]2O[C@H](CO)[C@@H](O)[C@H]2O)n1` [Ribavirin, reference compound], the EC50 amounted to 3.8 ± 1.6 µg/mL (≈ 15.6 µM) in [1] (setting [12]); 10 ± 6 µg/mL (≈ 40.9 µM) in [1] (setting [13]); 23 ± 16.8 µg/mL (≈ 94.2 µM) in data set [1] (setting [14]); 7.2 ± 2.8 µg/mL (≈ 29.5 µM) in data set [2] (setting [12]); 8.9 ± 7.9 µg/mL (≈ 36.4 µM) in data set [3] (setting [12]); 9.3 ± 5.2 µg/mL (≈ 38.1 µM) in data set [3] (setting [13]). Also, the EC50 in [3] (setting [14]) amounted to 85 ± 77.9 µg/mL (≈ 348 µM). Besides, the “Activity in virus yield reduction assay” value is recorded as “not active” in [11] (Vero76 cells (Figure 1A)); “confirmed the antiviral activity” in [11] (human cell lines Huh-7 and RD (Figures 1B and C)). Also, the “Viral RNA level in pooled serum on day 5 (qRT-PCR)” value in data set [4] (ribavirin i.p. bid 75 or 50 mg/kg/d) is “did not improve viral RNA levels”. Also, the “Outcome (survival)” value in [4] (ribavirin i.p. bid 75 or 50 mg/kg/d for 8 days) was “did not improve outcomes”. In data set [4] (ribavirin i.p. bid 75 or 50 mg/kg/d, days 7 to 13), the “Protection against weight loss” value is recorded as “did not protect against weight loss”. For the same molecule, the selectivity ratio in data set [8] (African green monkey) was 1.6; in data set [8] (human), 24.5. For the same molecule, the EC90 came out at 10.4 ± 0.8 µg/mL (≈ 42.6 µM) in data set [10] (setting [16]); 46.3 ± 8.6 µg/mL (≈ 190 µM) in data set [10] (RD, read-out: VYR assay EC90); 281 ± 108 µg/mL (≈ 1150 µM) in [10] (setting [17]).

For the origin of these results see publication PMC5215849 (Antiviral research, 2016).
